Where “and” joins values, the source holds several entries; their conditions need not be identical. Equal values may be shown once.
Assay: Experimental table stability of AST-2660 in human urine at room temperature (LC-MS/MS)
Type: in vitro ADME
Conditions: for RE (%) vs nominal / AST-2660 concentration, Mean value / AST-2660 concentration, single replicates: human urine, room temperature
Protocol: The detection method established in example 6 was used to detect the content of AST-2660 in the human urine to be tested.
Matrix: the mixed normal human urine containing an additive Na2HPO4·12H2O. • a: the internal standard working solution: AST-2660-D8 was taken, dissolved with methanol, and diluted to prepare a solution containing about 100 ng per 1 ml. • b: the solution to be tested (no internal standard compound was added to the solution to be tested at this time): it was obtained by taking a blood sample to be tested. • c: the standard working solution (no internal standard compound was added to the standard working solution at this time): an appropriate amount of AST-2660 was taken and accurately weighed, dissolved with methanol and diluted to prepare a solution containing about 1.0 mg per 1 ml, which was used as the standard working stock solution. An appropriate amount of the standard working stock solution was taken, added with the matrix and diluted to prepare standard working solutions with different concentrations containing about 200 ng, 160 ng, 100 ng, 50 ng, 10 ng, 2.0 ng, 1.0 ng and 0.5 ng per 1 ml, respectively. (The solution was stored at −70° C.) • d: the quality control sample solution: an appropriate amount of AST-2660 was taken and accurately weighed, dissolved with methanol, and diluted to prepare a solution containing about 10 μg per 1 ml, which was used as the quality control working stock solution. An appropriate amount of the quality control working stock solution was taken, and added with the matrix to prepare quality control working solutions with different concentrations containing about 150 ng, 60 ng, 15 ng, 1.5 ng and 0.5 ng per 1 ml. (The solution was stored at −70° C.)
The solution to be tested, the standard working solution and the quality control sample solution were thawed at room temperature and mixed uniformly. 100 μl of the above solution was respectively taken, added with 20 μl of the internal standard and 500 μl of methanol, and vortexed for 3 minutes to mix uniformly, and then centrifuged for 30 minutes at 2143 rcf. 450 μl of supernatant was taken, and then centrifuged for 10 minutes in a 96-well plate at 2143 rcf. It was obtained by taking 300 μl of supernatant.
Liquid phase conditions: A SHARC 1, 3 μm, 2.1*50 mm or chromatograph column with equivalent performance was used; methanol solution containing low content of ammonium acetate was used; mobile phase B was acetonitrile; the gradient elution was performed according to the following table; column temperature: 20° C.; injection volume: 5 μl.
Mass spectrometric conditions: electrospray ion source with negative ion scanning mode; spray potential: −4500 V; ion source temperature: 500° C.; collision energy (CE): −22 eV; declustering potential (DP): −55V; entrance potential (EP): −10V; collision chamber exit potential (CXP): −16V; dwell time: 100 ms; high purity nitrogen was used for all gases; AST-2660 ions pairs: m/z 147.0→m/z 62.9; the internal standard AST-2660-D8 ion pairs: m/z 155.0→m/z 62.9.
The AST-2660 standard working solution, blank sample, zero concentration sample, solution to be tested and quality control working solution with different concentrations after extraction were respectively taken and injected into LC-MS/MS for detection.
Calculation results: the relationship function y=f (x) of the ratio of the peak area of AST-2660 to that of the internal standard was obtained from AST-2660 standard working solutions with different concentrations. The ratio of the peak area of AST-2660 to that of the internal standard was determined from the solution to be tested after extraction, and substituted into the relationship function y=f (x) to calculate the concentration of the metabolite II in the solution to be tested.

[1] = QC1 nominal 1.50 ng/ml, 4 hours
[2] = QC1 nominal 1.50 ng/ml, 24 hours
[3] = QC4 nominal 150 ng/ml, 24 hours

With O=P([O-])(N1CC1)N1CC1.[Na+] [AST-2660] the “RE (accuracy), range over three concentration levels” value (human urine at room temperature for 4 hours, 1.5, 150 and 1500 ng/ml) was “RE: −8.5% to 4.5%”, the “RE (%) vs nominal” value (DilQC (10-fold dilution) nominal 1500 ng/ml, 0 hour) was −5.7% and the “RE (%) vs nominal” value (DilQC (10-fold dilution) nominal 1500 ng/ml, 4 hours) was −5.7%. For the same molecule, the “RE (%) vs nominal” value (DilQC (10-fold dilution) nominal 1500 ng/ml, 24 hours) was −13.2%, the “AST-2660 concentration, Mean value” (QC1 nominal 1.50 ng/ml, 0 hour) was 1.37 ng/mL and the “AST-2660 concentration, single replicates” value (QC1 nominal 1.50 ng/ml, 0 hour) was 1.44 ng/mL. For the same molecule, the “RE (%) vs nominal” value (QC1 nominal 1.50 ng/ml, 0 hour) was −8.5%, the “AST-2660 concentration, Mean value” [1] was 1.45 ng/mL and the “AST-2660 concentration, single replicates” value [1] was 1.51 ng/mL. The “RE (%) vs nominal” value [1] was −3.7%, the “AST-2660 concentration, Mean value” [2] was 1.90 ng/mL and the “AST-2660 concentration, single replicates” value [2] was 2.07 ng/mL. For the same molecule, the “RE (%) vs nominal” value [2] was 26.7%, the “AST-2660 concentration, single replicates” value (QC4 nominal 150 ng/ml, 0 hour) was 141 ng/mL and 144 ng/mL and 142 ng/mL and 146 ng/mL and the “RE (%) vs nominal” value (QC4 nominal 150 ng/ml, 0 hour) was −4.5%. The “AST-2660 concentration, single replicates” value (QC4 nominal 150 ng/ml, 4 hours) was 156 ng/mL and 154 ng/mL and 159 ng/mL, the “RE (%) vs nominal” value (QC4 nominal 150 ng/ml, 4 hours) was 4.5% and the “AST-2660 concentration, single replicates” value [3] was 149 ng/ml (2×) and 154 ng/ml. For the same molecule, the “RE (%) vs nominal” value [3] was 0.8% and the “stability (in words)” value (untreated human urine samples, 24 hours at room temperature) was “stable”.

— patent publication US20240140970A1, “A […], AND PREPARATION METHOD AND USE THEREOF” (ASCENTAWITS PHARMACEUTICALS, LTD., priority 2021, published 2024)
